Values of other authors, collected in patent publication US20230065004A1, “METHOD FOR IMPROVING COLOUR RETENTION OF DYED KERATINOUS MATERIAL, ESPECIALLY HUMAN HAIR” (Henkel AG & Co. KGaA, priority 2019, published 2023).

Conditions: 25° C.
In the case of O=C([O-])C1=NN(c2ccc(S(=O)(=O)[O-])cc2)C(=O)C1N=Nc1ccc(S(=O)(=O)[O-])cc1.[Na+].[Na+].[Na+] (stereo not shown) [Acid Yellow 23, trisodium salt of 4,5-dihydro-5-oxo-1-(4-sulfophenyl)-4-((4-sulfophenyl)azo)-1H-pyrazole-3-carboxylic acid], the “solubility in water” value is given as “highly soluble”.
In the case of Nc1cc(S(=O)(=O)[O-])cc2cc(S(=O)(=O)[O-])c(N=Nc3ccccc3)c(O)c12.[Na+].[Na+] [Acid Red 33, dinatrium salt of 5-amino-4-hydroxy-3-(phenylazo)-naphthalene-2,7-disulphonate], the solubility in water is listed as “about 2.5 g/L”.
In the case of CCN(Cc1cccc(S(=O)(=O)[O-])c1)c1ccc(C(=C2C=CC(=[N+](CC)Cc3cccc(S(=O)(=O)[O-])c3)C=C2)c2ccccc2S(=O)(=O)[O-])cc1.[Na+].[Na+] [Acid Blue 9], the solubility in water is listed as “more than 20 wt. %”.
For O=S(=O)([O-])c1ccc(N=Nc2c(O)ccc3ccccc23)cc1.[Na+] [Acid Orange 7, sodium salt of 4-[(2-hydroxy-1-naphthyl)azo]benzene sulphonate], the solubility in water is listed as “more than 7 g/L”.
